Results on 25 compounds are retold here after PubChem BioAssay (NCI).

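All cell lines were grown in 96-well plates and treated with compound for 48 hours. GI50: concentration for 50% inhibition of growth. TGI marks complete inhibition of growth.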

The first experiment has as its system SNB-19 CNS. Nature of the experiment: NCI anticancer screen, dose series, 48 h.
Turning to `CN1CCc2c1nc(-c1ccccc1)c1c2N(C)CC1`, the TGI was over 100 µM.

On to `CCC[CH2][Sn]([CH2]CCC)([O]C(C)=O)[O]C(C)=O`, for which the GI50 was 1.14 µM and the TGI is 2.35 µM.

For `CN(C)CCCNC(=O)c1cc(NC(=O)CCNS(=O)(=O)c2ccc3c(c2)C(=O)c2ccccc2C3=O)cn1C`, the GI50 is over 100 µM and the TGI was over 100 µM.

In turn, `C=C1C(=O)O[C@H]2C[C@@H](C)[C@@H]3CC(=O)OC[C@@]3(C)CC12` (stereo partly drawn) displayed a TGI of over 100 µM.

For the compound `c1ccc2[nH]c(-c3ccc(N4CCN(c5ccc(-c6nc7ccccc7[nH]6)cc5)CC4)cc3)nc2c1`, the GI50 is 10.5 µM and the TGI is over 100 µM.

`CS(=O)(=O)CC1=Nc2nnc(CCCCCCCc3nnc4n3C(=O)C(CS(C)(=O)=O)=N4)n2C1=O` had a TGI of over 100 µM.

Regarding `COc1ccccc1[N-]C(C1=C([O-])c2ccccc2C1=O)c1ccccc1.COc1ccccc1[N-]C(C1=C([O-])c2ccccc2C1=O)c1ccccc1.[Cu+2]` (stereo not drawn), the GI50 is 23.8 µM and the TGI is 81.8 µM.

Compound `COC12C=CC(CC1)c1c(O)ccc(O)c12` (stereo not drawn) registered a TGI of over 100 µM.

In turn, `CC1=C2CCCC2C/C(=N/Nc2ccc([N+](=O)[O-])cc2[N+](=O)[O-])CC1` (stereo not drawn) had a TGI of over 100 µM.

As to `Cc1ccc2c(c1)C1(C)OC(CC(N)C1O)O2` (stereo not drawn), the TGI was over 100 µM.

Regarding `COC(=O)[C@@H]1CSC(=S)N1C(=O)C[C@H]1CC=CC[C@H]1CC(=O)Sc1ccccc1`, the TGI was 34.8 µM.

Take `COc1cc(Cn2cc3c(c2)-c2oncc2CC3)cc(OC)c1OC`: the GI50 is 0.0437 µM and the TGI was over 100 µM.

As for `CN(C)c1ccc2nc3ccc(=[N+](C)C)cc-3oc2c1`, the GI50 is 2.49 µM and the TGI was over 100 µM.

In turn, `CC1(Sc2ccccc2)CN(Cc2ccccc2)C1=O` (stereo not drawn) displayed a TGI of over 100 µM.

For the compound `C=C1C(=O)OC2CC3(C)C=CC(=O)C(=C)C3CC12` (stereo not drawn), the TGI amounted to 21.3 µM.

Take `COc1cccc(OC(=O)c2ccccc2Nc2ccnc(C(F)(F)F)c2)c1`: the GI50 was 3.52 µM and the TGI is over 100 µM.

In the case of `Cc1ccc(C(=O)Nc2ccc(S(=O)(=O)O)c3cc(S(=O)(=O)O)cc(S(=O)(=O)O)c23)cc1NC(=O)c1cccc(N)c1`, the TGI was over 100 µM.

For `CCOP(=O)(OCC)C1CCCCOC1=O` (stereo not drawn), the TGI is over 100 µM.

With `COc1ccc(Cn2nc(-c3cc(OC)c(OC)c(OC)c3)c3c2CCc2cnoc2-3)cc1OC`, the GI50 is 7.99 µM and the TGI is over 100 µM.

For a further experiment, the system named is MDA-MB-435. Nature of the experiment: NCI anticancer screen, dose series, 48 h.
In the case of `CN(C)CCCNC(=O)c1cc(NC(=O)CCNS(=O)(=O)c2ccc3c(c2)C(=O)c2ccccc2C3=O)cn1C`, the GI50 was over 100 µM and the TGI is over 100 µM.

Turning to `c1ccc2[nH]c(-c3ccc(N4CCN(c5ccc(-c6nc7ccccc7[nH]6)cc5)CC4)cc3)nc2c1`, the GI50 was over 100 µM and the TGI was over 100 µM.

With `COc1cc(Cn2cc3c(c2)-c2oncc2CC3)cc(OC)c1OC`, the GI50 is under 0.0107 µM and the TGI is under 0.0225 µM.

On to `CN(C)c1ccc2nc3ccc(=[N+](C)C)cc-3oc2c1`, for which the GI50 is 2.73 µM and the TGI worked out at 15.8 µM.

For a further experiment, the system named is SN12C renal. Nature of the experiment: NCI anticancer screen, dose series, 48 h.
`CN(C)c1ccc2c(NCCCCCCNc3ccnc4cc(N(C)C)ccc34)ccnc2c1` displayed a TGI of over 100 µM.

The compound `Nc1cc(=O)[nH]c(SC2=NC(N)CC(O)C2)n1` (stereo not drawn) came in with a TGI of over 100 µM.

`CC(=O)[O][Pb]([O]C(C)=O)([c]1ccccc1)[c]1ccccc1`: the GI50 is 3.61 µM and the TGI is over 100 µM.

Compound `CN1CCc2c1nc(-c1ccccc1)c1c2N(C)CC1` gave a TGI of over 100 µM.

Consider `CCC[CH2][Sn]([CH2]CCC)([O]C(C)=O)[O]C(C)=O`, for which the GI50 is 1.24 µM and the TGI was 2.54 µM.

For the compound `CN(C)CCCNC(=O)c1cc(NC(=O)CCNS(=O)(=O)c2ccc3c(c2)C(=O)c2ccccc2C3=O)cn1C`, the GI50 is over 100 µM and the TGI is over 100 µM.

Regarding `COC(=O)CCC(=O)N1Cc2cc(C)ccc2N(C(=O)CCC(=O)OC)Cc2cc(C)ccc21`, the TGI is over 100 µM.

`C=C1C(=O)O[C@H]2C[C@@H](C)[C@@H]3CC(=O)OC[C@@]3(C)CC12` (stereo partly drawn) gave a TGI of 60.8 µM.

As to `c1ccc2[nH]c(-c3ccc(N4CCN(c5ccc(-c6nc7ccccc7[nH]6)cc5)CC4)cc3)nc2c1`, the GI50 is over 100 µM and the TGI is over 100 µM.

For the compound `CS(=O)(=O)CC1=Nc2nnc(CCCCCCCc3nnc4n3C(=O)C(CS(C)(=O)=O)=N4)n2C1=O`, the TGI is over 100 µM.

As to `COc1ccccc1[N-]C(C1=C([O-])c2ccccc2C1=O)c1ccccc1.COc1ccccc1[N-]C(C1=C([O-])c2ccccc2C1=O)c1ccccc1.[Cu+2]` (stereo not drawn), the GI50 is 9.37 µM and the TGI was over 100 µM.

On to `O=C(NCCCCCCNC(=O)c1cccc2ccccc12)c1cccc2ccccc12`, for which the TGI was over 100 µM.

Take `COC12C=CC(CC1)c1c(O)ccc(O)c12` (stereo not drawn): the TGI was over 100 µM.

Compound `CC1=C2CCCC2C/C(=N/Nc2ccc([N+](=O)[O-])cc2[N+](=O)[O-])CC1` (stereo not drawn) registered a TGI of over 100 µM.

As to `CC1CC2C(=O)NC(=O)C2c2[nH]c3ccccc3c21` (stereo not drawn), the TGI was over 100 µM.

`Cc1ccc2c(c1)C1(C)OC(CC(N)C1O)O2` (stereo not drawn): the TGI was over 100 µM.

On to `COC(=O)[C@@H]1CSC(=S)N1C(=O)C[C@H]1CC=CC[C@H]1CC(=O)Sc1ccccc1`, for which the TGI was 30.4 µM.

Turning to `COc1cc(Cn2cc3c(c2)-c2oncc2CC3)cc(OC)c1OC`, the GI50 was 0.0435 µM.

For the compound `CN(C)c1ccc2nc3ccc(=[N+](C)C)cc-3oc2c1`, the GI50 is 0.892 µM and the TGI stood at 3.5 µM.

Compound `CC1(Sc2ccccc2)CN(Cc2ccccc2)C1=O` (stereo not drawn) yielded a TGI of over 100 µM.

Regarding `C=C1C(=O)OC2CC3(C)C=CC(=O)C(=C)C3CC12` (stereo not drawn), the TGI worked out at 3.46 µM.

As to `COc1cccc(OC(=O)c2ccccc2Nc2ccnc(C(F)(F)F)c2)c1`, the GI50 is 5.33 µM and the TGI turned out to be 41.2 µM.

Take `Cc1ccc(C(=O)Nc2ccc(S(=O)(=O)O)c3cc(S(=O)(=O)O)cc(S(=O)(=O)O)c23)cc1NC(=O)c1cccc(N)c1`: the TGI is over 100 µM.

In turn, `CCOP(=O)(OCC)C1CCCCOC1=O` (stereo not drawn) displayed a TGI of over 100 µM.

As to `COc1ccc(Cn2nc(-c3cc(OC)c(OC)c(OC)c3)c3c2CCc2cnoc2-3)cc1OC`, the GI50 was 5.25 µM and the TGI is over 100 µM.
